Patent publication US6992079B2, “Substituted 11-phenyl-dibenzazepine compounds useful for the treatment or prevention of diseases characterized by abnormal cell proliferation” (President Fellows of Harvard College, priority 1997, dated 2006)
Like-named read-outs stand apart in the source and are kept apart here.

What was measured:
MDA-MB-23 = assay: SRB antiproliferative assay; format: cell-based; conditions: Homo sapiens; MDA-MB-23 (Breast); SRB; 5% FCS/5 day incubation; read-out: IC50
From the text: (§1) The cells were passaged using Trypsin (Gibco).

MMRU = assay: SRB antiproliferative assay; format: cell-based; conditions: Homo sapiens, MMRU (Melanoma), 5% FCS/5 day incubation
From the text: as §1

[1] = Preliminary toxicology, subcutaneous injection for 14 days; format: in vivo, CD-1 female mice; conditions: CD-1 female mice; 80 mg/kg/day s.c. 14 days
Description: The toxicological effects of CLT, and compounds 28, 30 and 31 were tested in CD-1 female mice. A dose of 80 mg/kg/day was given to each mouse via subcutaneous injection for a period of 14 days. Preliminary toxicological data was determined by measuring body weight, gross pathology of organs blood chemistry and histology. The vehicle used was DMF 12%+2% Tween 20 88%.

RL-60 (TS) = assay: In-Vitro Testing SRB panel: Leukemia; format: cell-based
ROP-92 = format: cell-based
NCI-H226 = format: cell-based
SF-268 = assay: In-Vitro Testing SRB panel: CNS Cancer; format: cell-based
M14 = assay: In-Vitro Testing SRB panel: Melanoma; format: cell-based
UACC-257 = assay: In-Vitro Testing SRB panel: Melanoma; format: cell-based
IGROV1 = assay: In-Vitro Testing SRB panel: Ovarian Cancer; format: cell-based
OVCAR-8 = assay: In-Vitro Testing SRB panel: Ovarian Cancer; format: cell-based
SK-OV-3 = assay: In-Vitro Testing SRB panel: Ovarian Cancer; format: cell-based
A498 = assay: In-Vitro Testing SRB panel: Renal Cancer; format: cell-based
RXF 393 = assay: In-Vitro Testing SRB panel: Renal Cancer; format: cell-based
SN12C = assay: In-Vitro Testing SRB panel: Renal Cancer; format: cell-based
MDA-MB-231/ATCC = assay: In-Vitro Testing SRB panel: Breast Cancer; format: cell-based

SMILES: COc1ccc2c(c1)CN(C(=O)c1ccc([N+](=O)[O-])cc1)c1ccc(Cl)cc1C2c1ccccc1Cl (centres unmarked) [Compound 30]
- IC50 (MDA-MB-23): 0.9 µM
- IC50 (MMRU): 0.5 µM
- Body Weight Change [1]: 108%
- Liver Weight [1]: 1.52 ± 0.23 g
- RBC [1]: 8.2 ± 0.2 10^6/mm^3
- WBC [1]: 6.4 ± 1.7 10^3/mm^3
- WBC, RBC, BUN and creatine levels [1]: no differences were found
- GI50 (RL-60 (TS); Homo sapiens): 0.297 µM
- CC50 (RL-60 (TS); Homo sapiens, RL-60 (TB), read-out: LC50 (the source's name)): > 100 µM
- TGI (RL-60 (TS); RL-60 (TB)): >1.00E−04 Molar
- Percent Growth (RL-60 (TS); RL-60 (TB), Log10 concentration −4.0 Molar): 29%
- Percent Growth (RL-60 (TS); RL-60 (TB), Log10 concentration −5.0 Molar): 22%
- Percent Growth (RL-60 (TS); RL-60 (TB), Log10 concentration −6.0 Molar): 35%
- Percent Growth (RL-60 (TS); RL-60 (TB), Log10 concentration −7.0 Molar): 64%
- Percent Growth (RL-60 (TS); RL-60 (TB), Log10 concentration −8.0 Molar): 94%
- GI50 (ROP-92; Homo sapiens): > 100 µM
- CC50 (ROP-92; Homo sapiens, ROP-92, read-out: LC50 (the source's name)): > 100 µM
- TGI (ROP-92; ROP-92): >1.00E−04 Molar
- Percent Growth (ROP-92; ROP-92, Log10 concentration −4.0 Molar): 58%
- Percent Growth (ROP-92; ROP-92, Log10 concentration −5.0 Molar): 69%
- Percent Growth (ROP-92; ROP-92, Log10 concentration −6.0 Molar): 93%
- Percent Growth (ROP-92; ROP-92, Log10 concentration −7.0 Molar): 102%
- Percent Growth (ROP-92; ROP-92, Log10 concentration −8.0 Molar): 91%
- GI50 (NCI-H226; Homo sapiens, NCI-H226): 3.98 µM
- CC50 (NCI-H226; Homo sapiens, NCI-H226, read-out: LC50 (the source's name)): > 100 µM
- TGI (NCI-H226; NCI-H226): >1.00E−04 Molar
- Percent Growth (NCI-H226; NCI-H226, Log10 concentration −4.0 Molar): 34%
- Percent Growth (NCI-H226; NCI-H226, Log10 concentration −5.0 Molar): 35%
- Percent Growth (NCI-H226; NCI-H226, Log10 concentration −6.0 Molar): 73%
- Percent Growth (NCI-H226; NCI-H226, Log10 concentration −7.0 Molar): 79%
- Percent Growth (NCI-H226; NCI-H226, Log10 concentration −8.0 Molar): 83%
- GI50 (SF-268; Homo sapiens, SF-268): 3.08 µM
- CC50 (SF-268; Homo sapiens, SF-268, read-out: LC50 (the source's name)): > 100 µM
- TGI (SF-268; SF-268): >1.00E−04 Molar
- Percent Growth (SF-268; SF-268, Log10 concentration −4.0 Molar): 21%
- Percent Growth (SF-268; SF-268, Log10 concentration −5.0 Molar): 30%
- Percent Growth (SF-268; SF-268, Log10 concentration −6.0 Molar): 69%
- Percent Growth (SF-268; SF-268, Log10 concentration −7.0 Molar): 115%
- Percent Growth (SF-268; SF-268, Log10 concentration −8.0 Molar): 104%
- GI50 (M14; Homo sapiens, M14): 0.045 µM
- CC50 (M14; Homo sapiens, M14, read-out: LC50 (the source's name)): > 100 µM
- TGI (M14; M14): >1.00E−04 Molar
- Percent Growth (M14; M14, Log10 concentration −4.0 Molar): 30%
- Percent Growth (M14; M14, Log10 concentration −5.0 Molar): 37%
- Percent Growth (M14; M14, Log10 concentration −6.0 Molar): 75%
- Percent Growth (M14; M14, Log10 concentration −7.0 Molar): 93%
- Percent Growth (M14; M14, Log10 concentration −8.0 Molar): 99%
- GI50 (UACC-257; Homo sapiens, UACC-257): 1.86 µM
- CC50 (UACC-257; Homo sapiens, UACC-257, read-out: LC50 (the source's name)): > 100 µM
- TGI (UACC-257; UACC-257): >1.00E−04 Molar
- Percent Growth (UACC-257; UACC-257, Log10 concentration −4.0 Molar): 13%
- Percent Growth (UACC-257; UACC-257, Log10 concentration −5.0 Molar): 20%
- Percent Growth (UACC-257; UACC-257, Log10 concentration −6.0 Molar): 61%
- Percent Growth (UACC-257; UACC-257, Log10 concentration −7.0 Molar): 91%
- Percent Growth (UACC-257; UACC-257, Log10 concentration −8.0 Molar): 99%
- GI50 (IGROV1; Homo sapiens, IGROV-1): 6.35 µM
- CC50 (IGROV1; Homo sapiens, IGROV-1, IGROV1, read-out: LC50 (the source's name)): > 100 µM
- TGI (IGROV1; IGROV1): >1.00E−04 Molar
- Percent Growth (IGROV1; IGROV1, Log10 concentration −4.0 Molar): 36%
- Percent Growth (IGROV1; IGROV1, Log10 concentration −5.0 Molar): 41%
- Percent Growth (IGROV1; IGROV1, Log10 concentration −6.0 Molar): 86%
- Percent Growth (IGROV1; IGROV1, Log10 concentration −7.0 Molar): 97%
- Percent Growth (IGROV1; IGROV1, Log10 concentration −8.0 Molar): 97%
- GI50 (OVCAR-8; Homo sapiens, OVCAR-8): 7.72 µM
- CC50 (OVCAR-8; Homo sapiens, OVCAR-8, read-out: LC50 (the source's name)): > 100 µM
- TGI (OVCAR-8; OVCAR-8): >1.00E−04 Molar
- Percent Growth (OVCAR-8; OVCAR-8, Log10 concentration −4.0 Molar): 48%
- Percent Growth (OVCAR-8; OVCAR-8, Log10 concentration −5.0 Molar): 46%
- Percent Growth (OVCAR-8; OVCAR-8, Log10 concentration −6.0 Molar): 84%
- Percent Growth (OVCAR-8; OVCAR-8, Log10 concentration −7.0 Molar): 95%
- Percent Growth (OVCAR-8; OVCAR-8, Log10 concentration −8.0 Molar): 96%
- GI50 (SK-OV-3; Homo sapiens, SK-OV-3): > 100 µM
- CC50 (SK-OV-3; Homo sapiens, SK-OV-3, read-out: LC50 (the source's name)): > 100 µM
- TGI (SK-OV-3; SK-OV-3): >1.00E−04 Molar
- Percent Growth (SK-OV-3; SK-OV-3, Log10 concentration −4.0 Molar): 66%
- Percent Growth (SK-OV-3; SK-OV-3, Log10 concentration −5.0 Molar): 76%
- Percent Growth (SK-OV-3; SK-OV-3, Log10 concentration −6.0 Molar): 88%
- Percent Growth (SK-OV-3; SK-OV-3, Log10 concentration −7.0 Molar): 95%
- Percent Growth (SK-OV-3; SK-OV-3, Log10 concentration −8.0 Molar): 93%
- TGI (A498; A498): >1.00E−04 Molar
- Percent Growth (A498; A498, Log10 concentration −4.0 Molar): 54%
- Percent Growth (A498; A498, Log10 concentration −5.0 Molar): 64%
- Percent Growth (A498; A498, Log10 concentration −6.0 Molar): 87%
- Percent Growth (A498; A498, Log10 concentration −7.0 Molar): 102%
- Percent Growth (A498; A498, Log10 concentration −8.0 Molar): 95%
- GI50 (A498; Homo sapiens, A498): > 100 µM
- CC50 (A498; Homo sapiens, A498, read-out: LC50 (the source's name)): > 100 µM
- GI50 (RXF 393; Homo sapiens, RXF 393): 3.4 µM
- CC50 (RXF 393; Homo sapiens, RXF 393, read-out: LC50 (the source's name)): > 100 µM
- TGI (RXF 393; RXF 393): >1.00E−04 Molar
- Percent Growth (RXF 393; RXF 393, Log10 concentration −4.0 Molar): 20%
- Percent Growth (RXF 393; RXF 393, Log10 concentration −5.0 Molar): 23%
- Percent Growth (RXF 393; RXF 393, Log10 concentration −6.0 Molar): 81%
- Percent Growth (RXF 393; RXF 393, Log10 concentration −7.0 Molar): 97%
- Percent Growth (RXF 393; RXF 393, Log10 concentration −8.0 Molar): 90%
- TGI (SN12C): >1.00E−04 Molar
- GI50 (SN12C; Homo sapiens): 6.32 µM
- CC50 (SN12C; Homo sapiens, read-out: LC50 (the source's name)): > 100 µM
- Percent Growth (SN12C; Log10 concentration −4.0 Molar): 45%
- Percent Growth (SN12C; Log10 concentration −5.0 Molar): 41%
- Percent Growth (SN12C; Log10 concentration −6.0 Molar): 87%
- Percent Growth (SN12C; Log10 concentration −7.0 Molar): 90%
- Percent Growth (SN12C; Log10 concentration −8.0 Molar): 100%
- GI50 (MDA-MB-231/ATCC; Homo sapiens, MDA-MB-231): > 100 µM
- CC50 (MDA-MB-231/ATCC; Homo sapiens, MDA-MB-231/ATCC, read-out: LC50 (the source's name)): > 100 µM
- TGI (MDA-MB-231/ATCC; MDA-MB-231/ATCC): >1.00E−04 Molar
- Percent Growth (MDA-MB-231/ATCC; MDA-MB-231/ATCC, Log10 concentration −4.0 Molar): 54%
- Percent Growth (MDA-MB-231/ATCC; MDA-MB-231/ATCC, Log10 concentration −5.0 Molar): 54%
- Percent Growth (MDA-MB-231/ATCC; MDA-MB-231/ATCC, Log10 concentration −6.0 Molar): 89%
- Percent Growth (MDA-MB-231/ATCC; MDA-MB-231/ATCC, Log10 concentration −7.0 Molar): 92%
- Percent Growth (MDA-MB-231/ATCC; MDA-MB-231/ATCC, Log10 concentration −8.0 Molar): 106%
- TGI (ERVX; ERVX): >1.00E−04 Molar
- Percent Growth (ERVX; ERVX, Log10 concentration −4.0 Molar): 18%
- Percent Growth (ERVX; ERVX, Log10 concentration −5.0 Molar): 23%
- Percent Growth (ERVX; ERVX, Log10 concentration −6.0 Molar): 78%
- Percent Growth (ERVX; ERVX, Log10 concentration −7.0 Molar): 96%
- Percent Growth (ERVX; ERVX, Log10 concentration −8.0 Molar): 92%
- GI50 (ERVX; Homo sapiens): 3.24 µM
- CC50 (ERVX; Homo sapiens, read-out: LC50): > 100 µM
